Measured values taken from patent US11555047B2, “One-step synthesis of phosphate-based inhibitors and applications thereof” (UNIVERSITY OF SOUTH CAROLINA, priority 2019, dated 2023).
Where two headings read alike, the source gives them in different places.

Assays:
TcRPI-B [1] = molecular target: T1, TcRPI-B (Trypanosoma cruzi, UniProt A0ACM8Q8A9); conditions: known TcRPI-B inhibitors, FIG. 2; cited from earlier work
TcRPI-B [2] = molecular target: T1, TcRPI-B; experiment: TcRPI-B coupled enzyme assay following consumption of NADH at 340 nm; format: biochemical; conditions: for activity at 200 µM: compound 0.2 mM; for activity at 200 µM / activity at 500 µM / activity at 1000 µM / activity at 2000 µM: 2 mM R5P, mean of three determinations ± SD, read-out: percentage of TcRPI-B activity; for activity at 500 µM: compound 0.5 mM; for activity at 1000 µM: compound 1.0 mM; for activity at 2000 µM: compound 2.0 mM
Description: (§1) The activity of TcRPI-B was determined by a coupled enzyme assay following consumption of NADH at 340 nm, at 30° C., in a Beckman Coulter DU®600 Spectrophotometer, using a mixture containing 50 mM triethanolamine (pH 7.5), 5 mM MgCl2, […], 0.025 mM thiamine pyrophosphate, 1 unit of transketolase (EC 2.2.1.1), 1 unit of ribulose 5-phosphate 3-epimerase (EC 5.1.3.1), 20 units of triosephosphate isomerase (EC 5.3.1.1), 2 units of α-glycerophosphate dehydrogenase (EC 1.1.1.8), and 2 mM R5P for the screening of the inhibitors. For the determination of Ki, the concentration of R5P was 0.4 mM, 0.8 mM, and 2.0 mM.
(§2) The activity of TcRPE-1 was determined in the same reaction mixture, without TcRPI-B, and replacing R5P by 4 mM ribulose 5-phosphate (Ru5P). […] The reaction was started with the addition of TcRPI-B and further incubated for 10 minutes in the same tube, to surpass the lag observed with the recombinant RPI, and then the mixture was transferred to the spectrophotometer cuvette and the linear part of the progress curve was registered for 15 minutes. The screening of the inhibitors was performed using them at 0, 0.2, 0.5, 1.0 and 2.0 mM for both enzymes, TcRPI-B and TcRPE-1, and for the Ki determination for compound B (FIG. 4) the concentrations used were: 0, 10, 20, 40, 60 and 80 μM, at each R5P concentration used.

TcRPE-1 = TcRPE-1 coupled enzyme assay (same reaction mixture, without TcRPI-B, 4 mM Ru5P); format: biochemical, Trypanosoma cruzi; conditions: mean of three determinations ± SD
Description: as §1, §2

TcRPI-B [3] = molecular target: T1, TcRPI-B; experiment: Trypsin digestion LC/MSMS of TcRPI-B exposed to Compound B; format: binding; conditions: 500 μM compound, 100 μM TcRPI-B, 4° C., 30 minutes
Description: Sample preparation: Purified TcRPI-B was buffer exchanged into 50 mM ammonium bicarbonate (pH 8.0) by using a PD-10 desalting column (GE Life Sciences). The concentration of TcRPI-B was adjusted to 100 μM for the monomer [TcRPI-B: M.W.=19,816 g/mol; ε280=5,120 M^−1 cm^−1] using an Agilent 8453 UV-Visible spectrophotometer. A protein test sample was incubated with compound B (FIG. 2) at a final concentration of 500 μM at 4° C. for 30 minutes and a control sample was prepared that was in the absence of compound B. Samples to be analyzed by LC/MSMS were first quantitated for protein content using a Pierce™ bicinchoninic acid (BCA) Protein Assay Kit and normalized to 50 μg of protein by diluting the appropriate amount of sample in 50 mM ammonium bicarbonate. Normalized samples were digested with trypsin at a 50:1 protein:trypsin concentration. Samples were incubated for 4 hours and then aliquoted for LC-MS analysis.
Nanoflow LC: Chromatographic separation was achieved using a Thermo Scientific™ EASY-nLC™ 1200 system (Bremen, Germany). Pico-frit columns were purchased from New Objective (Woburn, Mass.) and bomb packed to a length of 20-30 cm with reverse phase ReproSil-Pur® 120 Å C18-AQ 3 μm particles (Dr. Maisch, Germany). […]

| SMILES | Ki (TcRPI-B [1]) | activity at 200 µM (TcRPI-B [2]) | activity at 500 µM (TcRPI-B [2]) | activity at 1000 µM (TcRPI-B [2]) | activity at 2000 µM (TcRPI-B [2]) | percentage of TcRPE-1 activity (TcRPE-1; compound 0.2 mM) | percentage of TcRPE-1 activity (TcRPE-1; compound 0.5 mM) | percentage of TcRPE-1 activity (TcRPE-1; compound 1.0 mM) | percentage of TcRPE-1 activity (TcRPE-1; compound 2.0 mM) | Ki (TcRPI-B [2]; Dixon plots, R5P 0.4, 0.8 and 2 mM, inhibitor 0-80 μM, mean of four independent experiments, read-out: inhibition constant (Ki)) | type of inhibition (TcRPI-B [2]; plot of [R5P]/V vs. [B], three lines parallel) | covalent labeling of TcRPI-B peptide V66-R86 (TcRPI-B [3]) |
| --- | --- | --- | --- | --- | --- | --- | --- | --- | --- | --- | --- | --- |
| O=C[C@H](O)[C@H](O)[C@H](O)[C@H](O)COP(=O)(O)O [AlI6P] | 15000 µM | – | – | – | – | – | – | – | – | – | – | – |
| O=C(NO)[C@H](O)[C@H](O)COP(=O)(O)O [Compound 4PEH, 4-phospho-D-erythronohydroxamic acid] | 1200 µM | – | – | – | – | – | – | – | – | – | – | – |
| O=C(Cc1ccccc1)NCCOP(=O)(O)O [Compound A, 2-(2-phenylacetamido)ethyl dihydrogen phosphate] | – | 98.1 ± 3.2% | 97.4 ± 0.5% | 95.3 ± 4.2% | 89.2 ± 3.5% | 100 ± 5% | 91.9 ± 4.3% | 87.4 ± 3.1% | 85.9 ± 4.4% | – | – | – |
| O=C(CI)NCCOP(=O)(O)O [Compound B, 2-(2-iodoacetamido)ethyl dihydrogen phosphate] | – | 25.2 ± 3.5% | 7.5 ± 3.9% | 1.2 ± 0.3% | 0% | 89.5 ± 4% | 89.5 ± 4% | 103 ± 5% | 57.4 ± 0.4% | 5.5 ± 0.1 µM | competitive inhibition | bound irreversibly to C69 |
| O=C(CBr)NCCOP(=O)(O)O [Compound C, 2-(2-bromoacetamido)ethyl dihydrogen phosphate] | – | 78.5 ± 4.8% | 62.7 ± 5.9% | 41.3 ± 2.7% | 18.3 ± 2.5% | 91.1 ± 5.1% | 85.8 ± 4.4% | 77.3 ± 7.5% | 65.1 ± 5.2% | – | – | – |
| O=C(CCl)NCCOP(=O)(O)O [Compound D, 2-(2-chloroacetamido)ethyl dihydrogen phosphate] | – | 107 ± 9% | 105 ± 7% | 98.5 ± 2.1% | 83.7 ± 8.9% | 100 ± 6% | 103 ± 5% | 95.5 ± 7.9% | 82.6 ± 12% | – | – | – |
| O=C(CF)NCCOP(=O)(O)O [Compound E, 2-(2-fluoroacetamido)ethyl dihydrogen phosphate] | – | – | – | – | – | 111 ± 10% | 103 ± 7% | 93.2 ± 11.1% | 83.5 ± 9.7% | – | – | – |
